Patent US20030092684A1, “Compositions and methods for treating hemorrhagic virus infections and other disorders” (priority 1999, published 2003)
“And” between values parts separate entries of the source, which are not always exact repeats. Equal values may be shown once. Read-outs that look alike come from different tables or passages of the source.

Columns and labels:
[1] = 7 day period without viral infection
[2] = system: mice with the SEB-induced septic shock; set-up: species or system Balb/c mice; details: mouse, in vivo
[3] = system: Lassa virus strain Josiah; set-up: species or system BALB/c mice; details: mouse, in vivo
[4] = system: Dengue virus type 2; assay: Dengue virus infection treated with tetracycline compounds (Example 4): mortality; format: in vivo, BALB/c mice; details: 20 mg/kg orally twice per day from day -3 until day 8
[5] = system: Marburg virus strain Popp; set-up: species or system guinea-pigs; details: guinea pig, in vivo
[6] = system: Dengue virus, type 2; set-up: species or system BALB/c mice; details: mouse, in vivo, po
[7] = system: TNF-α and IL-1β; assay: Serum TNF and IL-1 in Dengue infected mice (Example 4); format: in vivo, BALB/c mice; details: for IL-1 / TNF: 20 mg/kg orally twice per day from day -3 until day 8
[8] = system: TNF-α and IL-1β; assay: Serum TNF-α and IL-1β in Dengue infected mice (Example 5); format: in vivo, BALB/c mice; details: 100 μg orally twice per day from day 3 until day 8
[9] = 58 mg/kg i.m. during 17 day period without virus injection
[10] = system: Mononuclear human cells; assay: In vitro activation of mononuclear human cells by antibiotics: IL-1RA and sTNFrI production; format: cell-based; details: 0.06 mg/ml, activation for 2 hours
[11] = system: IL-1RA and sTNFrl; assay: IL-1RA and sTNFrl in human donor serum after oral antibiotic stimulation; format: in vivo; details: after stimulation, 2 persons, on the 24th hour

CN(C)C1C(O)=C(C(N)=O)C(=O)C2(O)C(O)=C3C(=O)c4c(O)cccc4C(C)(O)C3CC12 (stereo not drawn) [Tetracycline, 4-dimethylamino-1,4,4a,5,5a,6-11,12a-octahydro-3,6,10,12,12a-pentahydroxy-6-methyl-1,11-dioxo-2-naphthacenecarboxamide]
toxicity to control groups [1]: not toxic
death ([1]; of 20 mice): 0
survival ([1]; of 20 mice): 20
mice survived 96 hours postinduction [2]: About 20%
survival [3]: 80%
death ([3]; 58 mg/kg): 4
Survival/total amount ([4]; day 0): 20/20
Survival/total amount ([4]; day 1): 20/20
Survival/total amount ([4]; day 3): 20/20
Survival/total amount ([4]; day 5): 16/20
Survival/total amount ([4]; day 6): 11/20
Survival/total amount ([4]; day 7): 8/20
Survival/total amount ([4]; day 12): 8/20
Survival/total amount ([4]; day -1): 20/20
m.t.d. (mean time to death) [5]: 8.75 and 8.06 and 7.91
Survived/died [6]: 9/11
m.t.d. (average lifetime) [6]: 8.40 ± 0.73
increase of the concentration of TNF ([7]; 20 mg/kg orally twice per day): 2 fold
level of the cytokines in the serum versus control A2 group ([7]; 20 mg/kg twice per day from day -3 until day 8): statistically lower
increase of the concentration of IL-1 ([7]; by day 5 of the disease, 20 mg/kg orally twice per day): 10 fold
IL-1 ([7]; day 0): 6.8 pg/mL
IL-1 ([7]; day 1): 10.8 pg/mL
IL-1 ([7]; day 3): 46.8 pg/mL
TNF ([7]; day 3): 14.0 pg/mL
IL-1 ([7]; day 5): 66.0 pg/mL
TNF ([7]; day 5): 28.8 pg/mL
IL-1 ([7]; day 6): 56.8 pg/mL
TNF ([7]; day 6): 38.4 pg/mL
IL-1 ([7]; day 7): 10.2 pg/mL
TNF ([7]; day 7): 33 pg/mL
IL-1 ([7]; day 12): 7.4 pg/mL
TNF ([7]; day 12): 19.6 pg/mL
IL-1 ([7]; day -1): 6.8 pg/mL
TNF ([7]; day -1): 18.4 pg/mL
IL-1 ([8]; day 0): 6.0 pg/mL
TNF ([8]; day 0): 7.8 pg/mL
IL-1 ([8]; day 1): 12.0 pg/mL
TNF ([8]; day 1): 13.8 pg/mL
IL-1 ([8]; day 3): 36.0 pg/mL
TNF ([8]; day 3): 38.2 pg/mL
IL-1 ([8]; day 5): 48.6 pg/mL
TNF ([8]; day 5): 56.2 pg/mL
IL-1 ([8]; day 6): 62.4 pg/mL
TNF ([8]; day 6): 156.8 pg/mL
IL-1 ([8]; day 12): 15.6 pg/mL
TNF ([8]; day 12): 18.0 pg/mL
IL-1 ([8]; day 21): 5.8 pg/mL
TNF ([8]; day 21): 7.4 pg/mL
toxicity to control groups [9]: not toxic
survival ([9]; of 6 guinea pigs): 6
IL-1RA ([10]; 0 hours): 22 + 1.4 pg/ml
sTNFrI ([10]; 0 hours): 19 + 1.2 pg/ml
IL-1RA ([10]; 3 hours): 86 + 4.6 pg/ml
sTNFrI ([10]; 3 hours): 185 + 8.4 pg/ml
IL-1RA ([10]; 6 hours): 186 + 8.2 pg/ml
sTNFrI ([10]; 6 hours): 204 + 9.2 pg/ml
IL-1RA ([10]; 24 hours): 140 + 7.6 pg/ml
sTNFrI ([10]; 24 hours): 201 + 8.6 pg/ml
IL-1RA in the donor serum [11]: 130 ± 6.8 pg/mL
sTNFrl in the donor serum [11]: 580 ± 18.2 pg/mL
